Earlier results in patent publication US7947677B2, “Spirolactam tricyclic CGRP receptor antagonists” (Merck Sharp & Dohme Corp., priority 2005, dated 2011).
No end group written: not given here.

Tests used:
facial blood flow [1] = settings: marmoset, electrical stimulation of the trigeminal ganglion (Doods et al. 2000)
middle meningeal artery = settings: rats, electrical stimulation of the dura mater, prior administration (Williamson et al. 1997)
facial blood flow [2] = settings: rat, trigeminal ganglion stimulation (Escott et al. 1995)

Row | Molecule | increase in facial blood flow (facial blood flow [1]) | increase of the diameter of the middle meningeal artery (middle meningeal artery) | increased facial blood flow (facial blood flow [2])
1 | NCCCC[C@H](NC(=O)[C@@H](Cc1cc(Br)c(O)c(Br)c1)NC(=O)N1CCC(N2Cc3ccccc3NC2=O)CC1)C(=O)N1CCN(c2ccncc2)CC1 [BIBN4096BS] | blocked | – | –
2 | CGRP(8-37): a fragment of CGRP that lacks seven N-terminal amino acid residues; a peptide CGRP antagonist (VTHRLAGLLSRSGGVVKNNFVPTNVGSKAF; ends and bridges not checked; UniProt P06881 90-119, looked up, fragment) | – | blocked | inhibited
